2 molecules from patent US20070042970A1, “Folate-modified cholesterol-bearing pullulan as a drug carrier” (priority 2005, published 2007) can be followed below.

Series [1] deals with TIG-1-20 cells. The series is described as follows: Cell counting experiment (trypan blue, hematocytometer). Format: cell-based. The following applies: 0.2 mg/L DOX; at least for 2 days; folate-depleted DMEM. As for the experimental part:
Cells of either KB or TIG-1-20 were plated in 6 well cultivation plates and preincubated for 2-3 days, and each cultivation medium was replaced with new one (1.98 ml) just before the addition of anticancer reagents (0.02 ml). At the time of the addition, cell densities were about 5×10^4/ml for TIG-1-20, and about 15×10^4/ml for KB (each ca. 20-25% of their confluent states). The additives mainly used were; Control 1: PBS, Control 2 (FC): FA-CHP (1 mg)-CHP (4 mg) complex solution in 1 ml PBS, DOX 1: 0.02 mg doxorubicin/ml-PBS, DOX 2: 0.03 mg doxorubicin/ml-PBS, FA-CHP-CHP-DOX 1 (FCD 1): FA-CHP (1 mg)-CHP (4 mg)-DOX (0.02 mg) in 1 ml PBS, FA-CHP-CHP-DOX 2 (FCD 2): FA-CHP (1 mg)-CHP (4 mg)-DOX (0.03 mg) in 1 ml PBS. Drug mixtures with other composition were also tested essentially by the same procedure.
The culture medium was removed to 15 ml centrifugation tube, and cells remained attached to the dish were removed with Sigma cell dissociation solution (non-enzymatic, in PBS) in the case of KB, and with 0.05% trypsin and 0.02% EDTA solution in the case of TIG-1-20. […] After mixing with pipetting, all cells were counted on improved Neubauer hematocytometer. Detached cells were also counted by the same procedure after adjusting the removed medium to 2 ml.

Series [2] is classed as physicochemical. As for the experimental part: For example, 5.0 mg of FA-CHP can simply complex with 0.01 mg of DOX. Complexes of DOX with a mixture of FA-CHP and CHP are denoted as FA-CHP-CHP-DOX hereafter.

Take `COc1cccc2c1C(=O)c1c(O)c3c(c(O)c1C2=O)C[C@@](O)(C(=O)CO)C[C@@H]3O[C@H]1C[C@H](N)[C@H](O)[C@H](C)O1` [DOX, Doxorubicin]: the “TIG-1-20 cell death / proliferation (cell number counting)” value in series [1] is “completely killed cell proliferation”.

For “folate modified cholesterol-bearing pullulan [FA-CHP]”, the “solubility in PBS” value in series [2] is listed as “easily soluble”.
